System: PD-1-deficient mouse serum
Assay: Competition with recombinant cardiac troponin I in western blotting of normal mouse heart extract
Format: binding
Conditions: recombinant cardiac troponin I added at 1, 10 and 100 μg/ml
Method: PD-1-deficient mouse serum (mouse #101, #104 and #117) was used for western blotting of normal mouse heart extract. For the competition assay, recombinant cardiac troponin I was added to immune blot solution at 1, 10, and 100 μg/ml. The 30-kDa antigen recognized by PD-1-deficient mouse serum was depleted by immunoprecipitation with antibodies to anti-myocardial troponin I and was recoverable from the pellet fraction (FIG. 2 (b)).
Thus, the band was confirmed to consist solely of cardiac troponin I.

In the case of “recombinant cardiac troponin I: mouse cardiac troponin I protein obtained by PreScission protease cleavage of a GST-fusion recombinant protein”, the “intensity of the 30-kDa band recognized by PD-1-deficient mouse serum” value is reported as “weakened in a dose-dependent manner”.

Reference: patent US7407767B2, “Method of screening remedy for heart disease and medicinal composition for treating heart disease” (Ono Pharmaceutical Co., Ltd., priority 2003, dated 2008)
